# Measurements: ChEMBL document CHEMBL5365473, “Novel Sulfonylurea-Based NLRP3 Inflammasome Inhibitor for Efficient Treatment of Nonalcoholic Steatohepatitis, Endotoxic Shock, and Colitis” (J Med Chem, 2023)
# Calls of active or inactive are those of the source. No cut-off for these calls is given here.
# Legend:
# [1] = Toxicity against male ICR mouse assessed as effect on plasma creatinine level at 200 to 500 mg/kg administered via gavage for 12 days; format: organism-based; conditions: in vivo, po, 288 h, dose 200-500 mg/kg, time 12 day
# Mus musculus [2] = test: Antiinflammatory activity against MCD diet-induced NASH C57BL/6 mouse model assessed as reduction in balloon dilatation in liver at 40 mg/kg, po administered via gavage for 5 weeks by Sirius red staining based analysis; format: functional, organism-based
# [3] = Toxicity against male ICR mouse assessed as effect on lung weight at 200 to 500 mg/kg administered via gavage for 12 days; format: organism-based; conditions: in vivo, po, 288 h, dose 200-500 mg/kg, time 12 day
# [4] = Tmax in ICR mouse at 10 mg/kg, po by LC-MS/MS analysis; format: ADME, organism-based; conditions: in vivo
# Hepatocyte = test: Cytotoxicity against mouse primary hepatic cells assessed as reduction in cell viability at 200 uM measured after 24 hrs by CCK8 assay; format: toxicity, cell-based; conditions: hepatocytes
# Mus musculus [5] = test: Antiinflammatory activity against LPS-induced lethal septic shock C57BL/6 mouse model assessed as increase in animal's survival rate at 20 mg/kg, ip administered for 1 hr prior to LPS challenge and measured for 72 hrs; format: functional; conditions: time 73 hrs
# [6] = Drug uptake in Sprague-Dawley rat muscle at 50 mg/kg, po measured for 24 hrs by LC-MS/MS analysis; format: ADME, organism-based, Muscle tissue; conditions: in vivo
# [7] = Toxicity against female ICR mouse assessed as effect on lung weight at 200 to 500 mg/kg administered via gavage for 12 days; format: organism-based; conditions: in vivo, po, 288 h, dose 200-500 mg/kg, time 12 day
# [8] = Half life in ICR mouse at 5 mg/kg, iv by LC-MS/MS analysis; format: ADME, organism-based; conditions: in vivo
# Mus musculus [9] = test: Antiinflammatory activity against MCD diet-induced NASH C57BL/6 mouse model assessed as protection against MCD diet-induced increase in liver to body weight ratio at 40 mg/kg, po administered via gavage for 5 weeks; format: functional, organism-based
# [10] = Toxicity against male ICR mouse assessed as effect on liver weight at 200 to 500 mg/kg administered via gavage for 12 days; format: organism-based; conditions: in vivo, po, 288 h, dose 200-500 mg/kg, time 12 day
# Mus musculus [11] = test: Antiinflammatory activity against MCD diet-induced NASH C57BL/6 mouse model assessed as improvement in liver morphology at 40 mg/kg, po administered via gavage for 5 weeks by H and E staining based analysis; format: functional, organism-based
# Mus musculus [12] = test: Antiinflammatory activity against MCD diet-induced NASH C57BL/6 mouse model assessed as reduction in immune cell infiltration by measuring reduction in F4/80-positive hepatic cells at 40 mg/kg, po administered via gavage for 5 weeks by immunofluorescence staining based analysis; format: functional, organism-based
# Mus musculus [13] = test: Antiinflammatory activity against MCD diet-induced NASH C57BL/6 mouse model assessed as reduction in balloon dilatation in liver at 40 mg/kg, po administered via gavage for 5 weeks by Masson's trichrome staining based analysis; format: functional, organism-based
# [14] = Tmax in ICR mouse at 5 mg/kg, iv by LC-MS/MS analysis; format: ADME, organism-based; conditions: in vivo
# Mus musculus [15] = test: Antiinflammatory activity against MCD diet-induced NASH C57BL/6 mouse model assessed as reduction in immune cell infiltration by measuring reduction in CD45-positive hepatic cells at 40 mg/kg, po administered via gavage for 5 weeks by immunofluorescence staining based analysis; format: functional, organism-based
# J774.A1 [16] = test: Effect on pro-IL-1 beta protein expression in mouse J774.A1 cells at 3 to 30 nM primed with LPS for 4.5 hrs followed by incubation with compound for 2.5 hrs and later stimulated with ATP for 30 mins by immunoblot analysis; format: functional, cell-based; conditions: dose 3-30 nM, time 3.0 hrs
# [17] = Drug uptake in Sprague-Dawley rat lungs at 50 mg/kg, po measured for 24 hrs by LC-MS/MS analysis; format: ADME, organism-based, Lung; conditions: in vivo
# Mus musculus [18] = test: Antiinflammatory activity against DSS-induced ulcerative colitis C57BL/6 mouse assessed as reduction in inflammatory cells infiltration in lamina propria in colon at 10 mg/kg, ip administered for 9 days and measured on day 10 by H and E staining based analysis; format: functional, organism-based; conditions: time 10.0 day
# [19] = Drug uptake in Sprague-Dawley rat brain at 50 mg/kg, po measured for 24 hrs by LC-MS/MS analysis; format: ADME, organism-based; conditions: in vivo
# [20] = Oral bioavailability in ICR mouse at 10 mg/kg by LC-MS/MS analysis; format: ADME, organism-based; conditions: in vivo
# Mus musculus [21] = test: Antiinflammatory activity against DSS-induced ulcerative colitis C57BL/6 mouse assessed as reduction in mucosal barrier disruption in colon at 10 mg/kg, ip administered for 9 days and measured on day 10 by H and E staining based analysis; format: functional, organism-based; conditions: time 10.0 day
# J774.A1 [22] = test: Effect on NLRP3 protein expression in mouse J774.A1 cells at 3 to 30 nM primed with LPS for 4.5 hrs followed by incubation with compound for 2.5 hrs and later stimulated with ATP for 30 mins by immunoblot analysis; format: functional, cell-based; conditions: dose 3-30 nM, time 3.0 hrs
# [23] = target: NACHT, LRR and PYD domains-containing protein 3 (Homo sapiens) (UniProt Q96P20); test: Inhibition of NLRP3 inflammasome in PMA-induced differentiated human THP-1 cells assessed as inhibition of caspase-1 activation primed with LPS for 4.5 hrs followed by incubation with compound for 2.5 hrs and later stimulated with ATP for 1 hr by immunoblot analysis; format: cell-based; conditions: dose 3-30 nM, time 3.5 hrs
# Sequence of NACHT, LRR and PYD domains-containing protein 3 (Homo sapiens) (Q96P20 whole entry, the tested form may be a part): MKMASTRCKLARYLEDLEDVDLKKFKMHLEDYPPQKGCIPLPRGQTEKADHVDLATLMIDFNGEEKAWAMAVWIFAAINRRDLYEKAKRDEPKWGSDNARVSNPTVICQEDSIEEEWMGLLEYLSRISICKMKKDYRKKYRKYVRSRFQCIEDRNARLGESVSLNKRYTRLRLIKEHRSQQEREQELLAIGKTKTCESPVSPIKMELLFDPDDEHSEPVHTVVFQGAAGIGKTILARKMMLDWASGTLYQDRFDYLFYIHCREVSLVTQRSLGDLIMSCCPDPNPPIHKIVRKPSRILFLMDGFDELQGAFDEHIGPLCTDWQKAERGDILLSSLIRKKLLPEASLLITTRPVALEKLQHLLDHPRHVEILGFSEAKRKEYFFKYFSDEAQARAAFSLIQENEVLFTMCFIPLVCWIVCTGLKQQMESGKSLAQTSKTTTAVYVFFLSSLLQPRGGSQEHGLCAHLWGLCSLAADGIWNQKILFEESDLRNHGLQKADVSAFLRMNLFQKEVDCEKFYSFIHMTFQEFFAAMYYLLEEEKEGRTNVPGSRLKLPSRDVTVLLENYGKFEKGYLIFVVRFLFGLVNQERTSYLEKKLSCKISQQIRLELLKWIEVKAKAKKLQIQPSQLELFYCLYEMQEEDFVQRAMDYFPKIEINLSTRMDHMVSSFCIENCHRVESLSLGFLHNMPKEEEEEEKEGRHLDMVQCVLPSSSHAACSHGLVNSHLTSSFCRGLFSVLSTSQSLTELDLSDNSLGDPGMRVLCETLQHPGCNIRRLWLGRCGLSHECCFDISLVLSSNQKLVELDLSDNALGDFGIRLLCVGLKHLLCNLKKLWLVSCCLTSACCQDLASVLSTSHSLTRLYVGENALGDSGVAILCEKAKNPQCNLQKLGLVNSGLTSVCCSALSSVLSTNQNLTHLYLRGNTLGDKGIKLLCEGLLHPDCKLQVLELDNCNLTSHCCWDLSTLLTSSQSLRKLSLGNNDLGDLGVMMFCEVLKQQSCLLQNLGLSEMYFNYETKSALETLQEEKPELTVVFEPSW
# [24] = Effect on immune cell numbers in MCS diet-fed C57BL/6 mouse assessed as effect on CD45 expression at 40 mg/kg, po administered via gavage for 5 weeks by immunofluorescence staining based analysis; format: toxicity, organism-based; conditions: in vivo, 840 h
# [25] = target: T1, Interferon-inducible protein AIM2 (Mus musculus) (UniProt Q91VJ1); test: Inhibition of AIM2 inflammasome in mouse J774.A1 cells assessed as inhibition of caspase-1 activation at 30 nM primed with LPS for 4.5 hrs followed by incubation with compound for 24 hrs and later stimulated with poly (dA:dT) for 6 hrs by immunoblot analysis; format: cell-based; conditions: time 30.0 hrs
# T1 sequence (whole entry): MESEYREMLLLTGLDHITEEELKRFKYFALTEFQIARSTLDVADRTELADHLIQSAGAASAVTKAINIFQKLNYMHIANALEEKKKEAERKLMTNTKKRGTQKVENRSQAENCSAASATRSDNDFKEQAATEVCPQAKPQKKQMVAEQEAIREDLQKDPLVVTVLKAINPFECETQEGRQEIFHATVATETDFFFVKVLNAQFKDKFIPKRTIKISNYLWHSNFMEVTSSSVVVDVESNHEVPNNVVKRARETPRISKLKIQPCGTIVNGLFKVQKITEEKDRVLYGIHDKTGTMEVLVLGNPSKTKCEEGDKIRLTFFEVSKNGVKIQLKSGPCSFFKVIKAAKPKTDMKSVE
# [26] = Toxicity against female ICR mouse assessed as effect on plasma ALT level at 200 to 500 mg/kg administered via gavage for 12 days; format: organism-based; conditions: in vivo, po, 288 h, dose 200-500 mg/kg, time 12 day
# [27] = target: NACHT, LRR and PYD domains-containing protein 3 (Homo sapiens) (UniProt Q96P20); test: Inhibition of NLRP3 inflammasome in PMA-induced differentiated human THP-1 cells assessed as inhibition of IL-1 beta secretion primed with LPS for 4.5 hrs followed by incubation with compound for 2.5 hrs and later stimulated with ATP for 1 hr by immunoblot analysis; format: cell-based; conditions: dose 3-30 nM, time 3.5 hrs
# [28] = target: NACHT, LRR and PYD domains-containing protein 3 (Mus musculus) (UniProt Q8R4B8); test: Inhibition of NLRP3 inflammasome in mouse J774.A1 cells assessed as inhibition of IL-1 beta secretion primed with LPS for 4.5 hrs followed by incubation with compound for 2.5 hrs and later stimulated with ATP for 30 mins by immunoblot analysis; format: cell-based; conditions: dose 3-30 nM, time 3.0 hrs
# Sequence of NACHT, LRR and PYD domains-containing protein 3 (Mus musculus) (Q8R4B8 whole entry, the tested form may be a part): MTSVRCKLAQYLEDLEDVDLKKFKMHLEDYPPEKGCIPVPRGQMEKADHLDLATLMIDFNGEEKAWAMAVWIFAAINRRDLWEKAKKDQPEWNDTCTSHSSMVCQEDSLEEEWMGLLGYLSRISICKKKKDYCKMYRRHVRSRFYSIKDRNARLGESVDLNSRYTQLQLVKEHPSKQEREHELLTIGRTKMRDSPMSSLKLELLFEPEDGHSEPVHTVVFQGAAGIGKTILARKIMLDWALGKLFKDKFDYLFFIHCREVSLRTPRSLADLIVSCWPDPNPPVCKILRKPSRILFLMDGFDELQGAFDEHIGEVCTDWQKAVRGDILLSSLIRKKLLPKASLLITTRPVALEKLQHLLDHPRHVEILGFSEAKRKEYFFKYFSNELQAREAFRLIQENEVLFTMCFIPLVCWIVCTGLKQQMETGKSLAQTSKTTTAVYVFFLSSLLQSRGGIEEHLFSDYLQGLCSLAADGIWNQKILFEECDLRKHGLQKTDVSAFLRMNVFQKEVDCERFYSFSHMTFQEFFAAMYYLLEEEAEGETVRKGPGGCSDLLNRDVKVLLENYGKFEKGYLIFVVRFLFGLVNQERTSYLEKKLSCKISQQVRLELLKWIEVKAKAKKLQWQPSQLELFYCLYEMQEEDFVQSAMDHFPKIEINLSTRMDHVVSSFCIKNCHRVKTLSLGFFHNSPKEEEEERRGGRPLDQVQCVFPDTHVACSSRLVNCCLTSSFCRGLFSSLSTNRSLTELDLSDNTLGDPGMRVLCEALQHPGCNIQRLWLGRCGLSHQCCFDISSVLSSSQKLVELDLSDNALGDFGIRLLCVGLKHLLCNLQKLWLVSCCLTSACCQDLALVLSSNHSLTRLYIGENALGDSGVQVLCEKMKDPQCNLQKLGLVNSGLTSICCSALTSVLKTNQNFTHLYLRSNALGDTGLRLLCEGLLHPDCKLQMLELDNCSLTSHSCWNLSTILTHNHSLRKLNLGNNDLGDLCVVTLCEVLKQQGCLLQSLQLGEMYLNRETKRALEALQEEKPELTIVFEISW
structure (smiles),measurement,setting,value
CN(C)Cc1ccc(S(=O)(=O)NC(=O)Nc2c3c(cc4c2CCC4)CCC3)cc1,Activity,[1],Non-Toxic
same,Activity,Mus musculus [2],Active
same,Activity,[3],Non-Toxic
same,Tmax,[4],40 min
same,Activity,Hepatocyte,Non-Toxic
same,survival at 20 mg/kg,Mus musculus [5],20%
same,Drug uptake,[6],Active
same,Activity,[7],Non-Toxic
same,half-life,[8],241 min
same,Activity,Mus musculus [9],Active
same,Activity,[10],Non-Toxic
same,Activity,Mus musculus [11],Active
same,Activity,Mus musculus [12],Active
same,Activity,Mus musculus [13],Active
same,Tmax,[14],4.98 min
same,Activity,Mus musculus [15],Active
same,Activity,J774.A1 [16],inactive
same,Drug uptake,[17],Active
same,Activity,Mus musculus [18],Active
same,Drug uptake,[19],Active
same,bioavailability,[20],85.2%
same,Activity,Mus musculus [21],Active
same,Activity,J774.A1 [22],inactive
same,inhibition,[23],Dose-Dependent Effect
same,Activity,[24],Non-Toxic
same,inhibition,[25],inactive
same,Activity,[26],Non-Toxic
same,inhibition,[27],Dose-Dependent Effect
same,inhibition,[28],Dose-Dependent Effect
